Measured values published in US11000033B2, “Ketone or oxime compound, and herbicide” (NISSAN CHEMICAL CORPORATION, priority 2014, dated 2021).

Key:
Format in all cases: in vivo
Lolium multiflorum Lam. = assay: Test Example 4: herbicidal effect by soil treatment (symbol K); conditions: 320 g/ha
Outline: (§1)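 Seeds were sown in sterilized diluvial soil, covered with about 1.5 cm of soil, and the soil surface was sprayed with a water-diluted emulsion of the compound at a predetermined rate. Plants grew in a greenhouse at 25° C. to 30° C.; effects were scored visually 3 weeks after application.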

Stellaria media [1] = assay: Test Example 4: herbicidal effect by soil treatment (symbol P); conditions: 320 g/ha
Outline: as §1

Setaria viridis = assay: Test Example 4: herbicidal effect by soil treatment (symbol G); conditions: 320 g/ha
Outline: as §1

Leptochloa chinensis = assay: Test Example 3: herbicidal effect by foliage application, Wagner pot (symbol D); conditions: application herbicide amount 320 g/ha
Outline: (§2)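 Rating at 3 weeks post-spray, by defined criteria. Treatment: emulsion diluted with water to a predetermined amount, applied evenly to foliage of 14-day-old plants raised in alluvial soil flooded 0.1–0.5 cm deep at 25–30 °C, rice co-sown.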

rice plant = assay: Test Example 5: effect on crop by foliage application, plastic box (symbol b); conditions: 320 g/ha, 3 weeks after application
Outline: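 Diluvial soil, sterilized and boxed (21 × 13 × 7 cm), received spot-sown seed covered by about 1.5 cm soil; plants were then greenhouse-grown at 25–30° C.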

Amaranthus retroflexus = assay: Test Example 5: herbicidal effect by foliage application, plastic box (symbol N); conditions: 320 g/ha, 3 weeks after application
Outline: (§3)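 Leaf-applied emulsion, water-diluted to a preset herbicide dose, on two-week-old seedlings raised in a 25° C. to 30° C. greenhouse; injury rated at 3 weeks using earlier criteria.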

[2] = system: Echinochloa crus-galli var. crus-galli; assay: Test Example 3: herbicidal effect by foliage application, Wagner pot (symbol H); conditions: application herbicide amount 320 g/ha
Outline: as §2

[3] = system: Echinochloa crus-galli var. crus-galli; assay: Test Example 5: herbicidal effect by foliage application, plastic box (symbol H); conditions: 320 g/ha, 3 weeks after application
Outline: as §3

Scirpus juncoides = assay: Test Example 2: herbicidal activity, application during weed generation in submerged conditions (symbol B); conditions: Table 23; application herbicide amount 320 g/ha; grade 0-5 by criteria of Test Example 1
Outline: (§4)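 Flooded-soil post-emergence test: emulsion of compound, water-diluted to target rate, applied to paddy water surface at 1–2 leaf stage of mixed-sown weeds (alluvial soil, 4 cm water, 25–30° C. greenhouse); visual rating 3 weeks after application.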

Monochoria vaginalis = assay: Test Example 2: herbicidal activity, application during weed generation in submerged conditions (symbol C); conditions: Table 23; application herbicide amount 320 g/ha; grade 0-5 by criteria of Test Example 1
Outline: as §4

Avena fatua = assay: Test Example 4: herbicidal effect by soil treatment (symbol I); conditions: 320 g/ha
Outline: as §1

rice = assay: Test Example 4: effect on crop by soil treatment (symbol b); conditions: 320 g/ha
Outline: (§5)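 Sterilized diluvial soil, spot sowing, ~1.5 cm soil cover; greenhouse 25–30° C.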

Chenopodium album = assay: Test Example 5: herbicidal effect by foliage application, plastic box (symbol O); conditions: 320 g/ha, 3 weeks after application
Outline: as §3

Stellaria media [4] = assay: Test Example 5: herbicidal effect by foliage application, plastic box (symbol P); conditions: 320 g/ha, 3 weeks after application
Outline: as §3

wheat = assay: Test Example 4: effect on crop by soil treatment (symbol e); conditions: 320 g/ha
Outline: as §5

Digitaria ciliaris = assay: Test Example 4: herbicidal effect by soil treatment (symbol F); conditions: 320 g/ha
Outline: as §1

[5] = system: Echinochloa oryzacola Vasing.; assay: Test Example 2: herbicidal activity, application during weed generation in submerged conditions (symbol A); conditions: Table 23; application herbicide amount 320 g/ha; grade 0-5 by criteria of Test Example 1
Outline: as §4

Veronica persica = assay: Test Example 4: herbicidal effect by soil treatment (symbol R); conditions: 320 g/ha
Outline: as §1

Alopecurus myosuroides [6] = assay: Test Example 5: herbicidal effect by foliage application, plastic box (symbol J); conditions: 320 g/ha, 3 weeks after application
Outline: as §3

Alopecurus myosuroides [7] = assay: Test Example 4: herbicidal effect by soil treatment (symbol J); conditions: 320 g/ha
Outline: as §1

Row | Structure (SMILES) | K: Lolium multiflorum Lam., herbicidal effect grade (Lolium multiflorum Lam.) | P: Stellaria media, herbicidal effect grade (Stellaria media [1]) | G: Setaria viridis, herbicidal effect grade (Setaria viridis) | herbicidal effect on D (Leptochloa chinensis), grade 0-5 (Leptochloa chinensis) | b: directly sowed rice plant, effect on crop (criteria 0-5) (rice plant) | N: Amaranthus retroflexus, herbicidal effect (criteria 0-5) (Amaranthus retroflexus) | herbicidal effect on H (Echinochloa crus-galli var. crus-galli), grade 0-5 [2] | H: Echinochloa crus-galli var. crus-galli, herbicidal effect (criteria 0-5) [3] | Herbicidal effect grade, B: Scirpus juncoides (Scirpus juncoides) | Herbicidal effect grade, C: Monochoria vaginalis (Monochoria vaginalis) | I: Avena fatua, herbicidal effect grade (Avena fatua) | b: directly sowed rice plant, effect grade on crop (rice) | O: Chenopodium album, herbicidal effect (criteria 0-5) (Chenopodium album) | P: Stellaria media, herbicidal effect (criteria 0-5) (Stellaria media [4]) | e: wheat, effect grade on crop (wheat) | F: Digitaria ciliaris, herbicidal effect grade (Digitaria ciliaris) | Herbicidal effect grade, A: Echinochloa oryzacola Vasing. [5] | R: Veronica persica, herbicidal effect grade (Veronica persica) | J: Alopecurus myosuroides, herbicidal effect (criteria 0-5) (Alopecurus myosuroides [6]) | J: Alopecurus myosuroides, herbicidal effect grade (Alopecurus myosuroides [7])
1 | COc1ccc(CON=C(C)CC2CC(O)=C(c3c(C)cc(C)cc3C)C2=O)cc1 (stereo not drawn) [1-112] | 5 (Herbicidal ratio of 90% or more (almost completely withered)) | 0 (Herbicidal ratio of 5% or lower (almost no effect)) | 5 (Herbicidal ratio of 90% or more (almost completely withered)) | 5 (Herbicidal ratio of 90% or more (almost completely withered)) | 5 (Herbicidal ratio of 90% or more (almost completely withered)) | 0 (Herbicidal ratio of 5% or lower (almost no effect)) | 5 (Herbicidal ratio of 90% or more (almost completely withered)) | 5 (Herbicidal ratio of 90% or more (almost completely withered)) | 4 (Herbicidal ratio of 70% or higher and lower than 90%) | 4 (Herbicidal ratio of 70% or higher and lower than 90%) | 3 (Herbicidal ratio of 40% or higher and lower than 70%) | 5 (Herbicidal ratio of 90% or more (almost completely withered)) | 3 (Herbicidal ratio of 40% or higher and lower than 70%) | 1 (Herbicidal ratio of 5% or higher and lower than 20%) | 0 (Herbicidal ratio of 5% or lower (almost no effect)) | 4 (Herbicidal ratio of 70% or higher and lower than 90%) | 4 (Herbicidal ratio of 70% or higher and lower than 90%) | 0 (Herbicidal ratio of 5% or lower (almost no effect)) | 5 (Herbicidal ratio of 90% or more (almost completely withered)) | 5 (Herbicidal ratio of 90% or more (almost completely withered))
2 | CC(CC1CC(O)=C(c2c(C)cc(C)cc2C)C1=O)=NOCc1cccc(Cl)c1 (stereo not drawn) [1-114] | 5 (Herbicidal ratio of 90% or more (almost completely withered)) | 0 (Herbicidal ratio of 5% or lower (almost no effect)) | 5 (Herbicidal ratio of 90% or more (almost completely withered)) | 5 (Herbicidal ratio of 90% or more (almost completely withered)) | 5 (Herbicidal ratio of 90% or more (almost completely withered)) | 1 (Herbicidal ratio of 5% or higher and lower than 20%) | 5 (Herbicidal ratio of 90% or more (almost completely withered)) | 5 (Herbicidal ratio of 90% or more (almost completely withered)) | 3 (Herbicidal ratio of 40% or higher and lower than 70%) | 4 (Herbicidal ratio of 70% or higher and lower than 90%) | 3 (Herbicidal ratio of 40% or higher and lower than 70%) | 3 (Herbicidal ratio of 40% or higher and lower than 70%) | 3 (Herbicidal ratio of 40% or higher and lower than 70%) | 3 (Herbicidal ratio of 40% or higher and lower than 70%) | 0 (Herbicidal ratio of 5% or lower (almost no effect)) | 5 (Herbicidal ratio of 90% or more (almost completely withered)) | 4 (Herbicidal ratio of 70% or higher and lower than 90%) | 0 (Herbicidal ratio of 5% or lower (almost no effect)) | 4 (Herbicidal ratio of 70% or higher and lower than 90%) | 4 (Herbicidal ratio of 70% or higher and lower than 90%)
3 | CC(CC1CC(O)=C(c2c(C)cc(C)cc2C)C1=O)=NOCc1ccccc1C(F)(F)F (stereo not drawn) [1-116] | 4 (Herbicidal ratio of 70% or higher and lower than 90%) | 0 (Herbicidal ratio of 5% or lower (almost no effect)) | 3 (Herbicidal ratio of 40% or higher and lower than 70%) | 3 (Herbicidal ratio of 40% or higher and lower than 70%) | 4 (Herbicidal ratio of 70% or higher and lower than 90%) | 0 (Herbicidal ratio of 5% or lower (almost no effect)) | 5 (Herbicidal ratio of 90% or more (almost completely withered)) | 5 (Herbicidal ratio of 90% or more (almost completely withered)) | 3 (Herbicidal ratio of 40% or higher and lower than 70%) | 2 (Herbicidal ratio of 20% or higher and lower than 40%) | 3 (Herbicidal ratio of 40% or higher and lower than 70%) | 1 (Herbicidal ratio of 5% or higher and lower than 20%) | 3 (Herbicidal ratio of 40% or higher and lower than 70%) | 2 (Herbicidal ratio of 20% or higher and lower than 40%) | 0 (Herbicidal ratio of 5% or lower (almost no effect)) | 1 (Herbicidal ratio of 5% or higher and lower than 20%) | 2 (Herbicidal ratio of 20% or higher and lower than 40%) | 0 (Herbicidal ratio of 5% or lower (almost no effect)) | 5 (Herbicidal ratio of 90% or more (almost completely withered)) | 4 (Herbicidal ratio of 70% or higher and lower than 90%)
